In the supplement of paper PMC10307832:

What was measured:
Assay in all cases: relative viability (nuclei count vs DMSO), 5 days (fraction); higher = more cells survive
Decitabine + Phenformin = compound: Nc1ncn([C@H]2C[C@H](O)[C@@H](CO)O2)c(=O)n1 [Decitabine] + N=C(N)NC(=N)NCCc1ccccc1 [Phenformin] (partner 250 µM)
Method in brief: (§1)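 Relative viability was taken as the ratio of nuclei in treated wells to nuclei in vehicle wells. Lung cancer cell lines in 1536-well plates received compounds by pin tool one day after seeding, either one drug alone or a fixed anchor-drug dose plus five library-drug doses (not always all listed) in √10 steps. Nuclei were counted on 4× images after 5 days of treatment, and values are medians of duplicate plates.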

Halofuginone + OSI-027 = compound: O=C(C[C@H]1NCCC[C@@H]1O)Cn1cnc2cc(Br)c(Cl)cc2c1=O (racemic) [Halofuginone] + COc1cccc2cc(-c3nc([C@H]4CC[C@H](C(=O)O)CC4)n4ncnc(N)c34)[nH]c12 [OSI-027] (partner 0.5 µM)
Method in brief: as §1

[1] = compound: O=C(C[C@H]1NCCC[C@@H]1O)Cn1cnc2cc(Br)c(Cl)cc2c1=O (racemic) [Halofuginone] + C[C@@H](Oc1cc(-c2cnn(C3CCNCC3)c2)cnc1N)c1c(Cl)ccc(F)c1Cl [Crizotinib] (partner 1 µM)
Method in brief: as §1

Decitabine + Luminespib = compound: Nc1ncn([C@H]2C[C@H](O)[C@@H](CO)O2)c(=O)n1 [Decitabine] + CCNC(=O)c1noc(-c2cc(C(C)C)c(O)cc2O)c1-c1ccc(CN2CCOCC2)cc1 [Luminespib] (partner 0.01 µM)
Method in brief: as §1

Row | Cell Line | relative viability (Decitabine + Phenformin; first compound 0.04 µM) | relative viability (Decitabine + Phenformin; first compound 0.1265 µM) | relative viability (Decitabine + Phenformin; first compound 0.4 µM) | relative viability (Decitabine + Phenformin; first compound 1.265 µM) | relative viability (Decitabine + Phenformin; first compound 4 µM) | relative viability (Halofuginone + OSI-027; first compound 0.001 µM) | relative viability (Halofuginone + OSI-027; first compound 0.003162 µM) | relative viability (Halofuginone + OSI-027; first compound 0.01 µM) | relative viability (Halofuginone + OSI-027; first compound 0.03162 µM) | relative viability (Halofuginone + OSI-027; first compound 0.1 µM) | relative viability ([1]; first compound 0.001 µM) | relative viability ([1]; first compound 0.003162 µM) | relative viability ([1]; first compound 0.01 µM) | relative viability ([1]; first compound 0.03162 µM) | relative viability ([1]; first compound 0.1 µM) | relative viability (Decitabine + Luminespib; first compound 0.04 µM) | relative viability (Decitabine + Luminespib; first compound 0.1265 µM) | relative viability (Decitabine + Luminespib; first compound 0.4 µM) | relative viability (Decitabine + Luminespib; first compound 1.265 µM) | relative viability (Decitabine + Luminespib; first compound 4 µM)
1 | HCC-78 | 0.626 | 0.634 | 0.593 | 0.505 | 0.477 | 0.347 | 0.334 | 0.363 | 0.396 | 0.407 | 0.396 | 0.356 | 0.314 | 0.341 | 0.237 | – | – | – | – | –
2 | HCC-366 | 0.505 | 0.528 | 0.392 | 0.244 | 0.155 | 1.33 | 1.02 | 0.857 | 0.892 | 0.567 | 0.759 | 0.515 | 0.607 | 0.544 | 0.0412 | – | – | – | – | –
3 | HCC-827 | 0.17 | 0.288 | 0.283 | 0.214 | 0.289 | 0.746 | 0.783 | 0.76 | 0.902 | 0.742 | 0.913 | 0.893 | 0.895 | 0.973 | 0.798 | 0.239 | 0.31 | 0.246 | 0.301 | 0.316
4 | HOP-62 | 0.464 | 0.374 | 0.175 | 0.168 | 0.148 | 0.782 | 0.803 | 0.826 | 0.727 | 0.576 | 0.905 | 0.958 | 0.971 | 0.972 | 0.676 | 0.488 | 0.342 | 0.21 | 0.187 | 0.209
5 | IA-LM | – | – | – | – | – | – | – | – | – | – | 0.845 | 0.899 | 0.768 | 0.384 | 0.0479 | – | – | – | – | –
6 | LC-2-ad | 0.512 | 0.552 | 0.509 | 0.419 | 0.416 | 0.903 | 0.888 | 0.746 | 0.889 | 0.608 | 0.555 | 0.472 | 0.431 | 0.516 | 0.439 | 0.839 | 0.958 | 0.782 | 0.492 | 0.558
7 | LCLC-97TM1 | 0.304 | 0.308 | 0.312 | 0.293 | 0.124 | 0.674 | 0.612 | 0.597 | 0.566 | 0.358 | 0.394 | 0.297 | 0.31 | 0.266 | 0.237 | 0.403 | 0.48 | 0.322 | 0.143 | 0.159
8 | LCLC-103H | 0.319 | 0.36 | 0.293 | 0.328 | 0.315 | 0.474 | 0.447 | 0.446 | 0.428 | 0.451 | 1.09 | 1 | 0.972 | 0.948 | 0.85 | 0.863 | 0.829 | 0.685 | 0.594 | 0.472
9 | LK-2 | 0.376 | 0.522 | 0.375 | 0.295 | 0.244 | 0.24 | 0.237 | 0.201 | 0.221 | 0.167 | 0.198 | 0.242 | 0.198 | 0.229 | 0.208 | 0.196 | 0.193 | 0.156 | 0.214 | 0.17
10 | LOU-NH91 | 0.442 | 0.724 | 0.732 | 0.588 | 0.659 | 0.733 | 0.732 | 0.748 | 0.741 | 0.692 | 0.782 | 0.718 | 0.714 | 0.964 | 0.688 | 0.323 | 0.344 | 0.358 | 0.299 | 0.35
11 | LU99A | 0.825 | 1 | 0.757 | 0.648 | 0.627 | 0.36 | 0.32 | 0.281 | 0.288 | 0.254 | 0.632 | 0.556 | 0.558 | 0.499 | 0.41 | 0.248 | 0.24 | 0.318 | 0.251 | 0.24
12 | LXF-289 | 0.431 | 0.371 | 0.263 | 0.26 | 0.228 | 0.762 | 0.885 | 0.819 | 0.785 | 0.542 | 0.829 | 0.737 | 0.746 | 0.825 | 0.653 | 0.418 | 0.313 | 0.261 | 0.222 | 0.196
13 | NCI-H522 | 0.564 | 0.674 | 0.514 | 0.552 | 0.65 | 0.734 | 0.707 | 0.721 | 0.689 | 0.605 | – | – | – | – | – | 1.07 | 0.919 | 0.923 | 0.652 | 0.684
14 | NCI-H1299 | – | – | – | – | – | – | – | – | – | – | 1.03 | 1.01 | 0.959 | 0.873 | 0.397 | – | – | – | – | –
15 | NCI-H1395 | 0.398 | 0.407 | 0.46 | 0.411 | 0.399 | 0.665 | 0.656 | 0.789 | 0.594 | 0.683 | – | – | – | – | – | 0.626 | 0.661 | 0.568 | 0.432 | 0.438
16 | NCI-H1623 | 0.539 | 0.507 | 0.5 | 0.492 | 0.462 | 0.536 | 0.455 | 0.436 | 0.517 | 0.423 | – | – | – | – | – | 0.51 | 0.475 | 0.504 | 0.427 | 0.434
17 | NCI-H1648 | – | – | – | – | – | 0.247 | 0.217 | 0.242 | 0.275 | 0.262 | – | – | – | – | – | – | – | – | – | –
18 | NCI-H1703 | – | – | – | – | – | – | – | – | – | – | 1.04 | 0.583 | 0.538 | 0.592 | 0.28 | – | – | – | – | –
19 | NCI-H1793 | 0.384 | 0.411 | 0.336 | 0.305 | 0.244 | 0.299 | 0.253 | 0.297 | 0.288 | 0.196 | – | – | – | – | – | 0.154 | 0.212 | 0.19 | 0.176 | 0.213
20 | NCI-H2342 | 0.597 | 0.732 | 0.511 | 0.514 | 0.535 | 0.565 | 0.622 | 0.574 | 0.7 | 0.618 | – | – | – | – | – | 0.765 | 0.737 | 0.804 | 0.537 | 0.434
21 | SW 900 | 0.319 | 0.32 | 0.269 | 0.19 | 0.219 | 0.68 | 0.628 | 0.518 | 0.494 | 0.293 | – | – | – | – | – | 0.212 | 0.164 | 0.169 | 0.179 | 0.197
